{"source": "patent US6191271A", "about": "“Synthetic divalent sLex containing polylactosamines and methods for use” (Glycim Oy, priority 1998, dated 2001)", "key": {"human Fuc-TIV": {"system": "human Fuc-TIV", "assay": "Fucosyltransferase reaction with lysates of CHO-cells transfected with human Fuc-TIV", "assay_type": "biochemical", "conditions": "for share of Fuc-TIV fucose transfer at the terminal (sialylated or non-reducing end) LN unit: residue 3 / terminal LN unit", "experimental": "(§1) Transfected Cells and Cell Lysates--The transfection of CHO-cells stably expressing human Fuc-TIV or Fuc-TVII has been described previously (Lowe, J. B., et al., J. Biol. Chem. 266:17467-17477 (1991); Natsuka, S., et al., J. Biol. Chem. 269:16789-16794 (1994)). For the enzyme assays, the cells were lysed in 1% Triton X-100 on ice in the presence of a mixture of protease inhibitors (16 μg/ml benzamidine HCl, 10 μg/ml phenanthroline, 10 μg/ml aprotinin, 10 μg/ml leupeptin, 10 μg/ml pepstatin A, 1 mM PMSF, Pharmingen, San Diego, Calif.).\n(§2) Glycan 1 was from Sigma (St. Louis, Mo.), and glycan 2 from Oxford Glycosystems (Abingdon, UK). The others were synthesized enzymatically. Briefly, glycan 11 was constructed from GlcNAcβ1-3Galβ1-OMe (Sigma) by β1,4-galactosylation (Brew, K., et al., Proc. Natl. Acad Sci. USA 59:491-497 (1968)) followed by β1,3-N-acetylglycosaminylation (Seppo, A., et al., Biochem. Cell Biol. 68:44-53 (1990)) and a second round of β1-4-galactosylation. […] Glycan 3 was obtained from glycan 11 by α2,3-sialylation as in (Maaheimo, H., et al., Eur. J. Biochem. 234:616-625 (1995)). Glycan 12 was constructed from the GNβ1-3 'LNβ1-3 'LN (Leppanen, A., et al., Biochemistry 30:9287-9296(1991)) by β1,4-galactosylation, MALDI-TOF MS: (M+Na)^+ m/z 1137.1 (calc. 1137.0). Glycan 4 was obtained by glycan 12 by α2,3-sialylation. Glycan 15 was synthesized as in (Renkonen, O., et al., Biochem. Cell. Biol. 68:1032-1036 (1990)), MALDI-TOF MS: (M+Na)^+ m/z 1136.9 (calc. 1137.0). Glycan 16 was obtained by a 2,3-salylation of 15. In the synthesis of glycan 8, GNβ1-3'LNβ1-3'LN was α1,3 [^14 C]fucosylated at both LN units with α1,3/4-FucTs ofhuman milk and then β1,4-galactosylated. MALDI-TOF MS of the resulting octasaccharide LN β1-3'Lexβ1-3'Lex gave (M+Na)^+ m/z 1429.3 (calc. 1429.3). The octasaccharide was finally α2,3-sialylated to give glycan 8. Degradation of glycan 8 by sialidase and a mixture of β-galactosidaseand β-N-acetylhexosaminidase gave the neutral hexasaccharide [^14 C]Fucα1-3LNβ1-3'[^14 C]Fucα1-3LN, which chromatographed like an authentic marker on paper. In the synthesis of glycan 5, glycan 10 was converted to the pentasaccharide LNβ1-3 '(GNβ1-6 ')LN as in (Niemela, R., et al., Carbohydr. Res. 279:331-338 (1995); Maaheimo, H., et al., Carbohydr. Res. 297:53-59 (1997)), MALDI-TOF MS: (M+Na)^+ m/z 974.8 (calc. 974.9). The product was α2,3-sialylated, α1,3-fucosylated selectively at the distal, sialylated LN-unit (Niemela, R., et al., Carbohydr. Res. 279:331-338 (1995), and treated with β-N-acetylhexosaminidase for removal of the protecting β1-6GN-unit to give glycan 5. Glycan 6, in turn, was obtained by α1,3-fucosylating glycan 9 at the LN unit by human milk α1,3/4-Fuc-Ts. The product was then β1,4-galactosylated and finally α2,3-sialylated. Glycan 7 was synthesized by α2,3-sialylation of the heptasaccharide LNβ1-3'Lexβ1-3'LN,prepared by β1,4-galactosylation of GNβ1-3 'Lexβ1-3 'LN, which had been isolated from a mixture of monofucosylated isomers by wheat germ agglutinin (WGA)-agarose chromatography. LNβ1-3'Lexβ1-3'N was characterized by ^1 H-NMR-spectroscopy, MALDI-TOF MS: (M+Na)^+m/z 1282.5 (calc. 1282.5). Glycan 9 was obtained by β1,3-N-acetylglucosaminylation of LN (Seppo, A., et al., Biochem. Cell Biol. 68:44-53 (1990)), MALDI-TOF MS: (M+Na)^+ m/z 609.7 (calc. 609.5). Glycan 10 was synthesized by β1,4-galactosylation of glycan 9. Glycans 13 and 14 were obtained by separating monofucosylated derivatives of glycan 10 by WGA chromatography. Glycan 13, MALDI-TOF MS: (M+Na)^+ m/z 917.9 (calc. 917.8). Glycan 14, MALDI-TOF MS: (M+Na)^+ m/z 917.8 (calc. 917.8). […]"}, "human Fuc-TVII": {"system": "human Fuc-TVII", "assay": "Fucosyltransferase reaction with lysates of CHO-cells transfected with human Fuc-TVII", "assay_type": "biochemical", "experimental": "as §1\nas §2, with “chromatography.” for “chromatography. Glycan 13, MALDI-TOF MS: (M+Na)^+ m/z 917.9 (calc. 917.8). Glycan 14, MALDI-TOF MS: (M+Na)^+ m/z 917.8 (calc. 917.8).”"}, "[1]": {"system": "rat lymphocyte L-selectin", "assay": "Stamper-Woodruff assay: in vitro lymphocyte adhesion to high endothelial venules (HEV) of peripheral rat lymph nodes", "assay_type": "cell-based", "experimental": "The affinities of the glycans of the invention towards rat lymphocyte L-selectin were analyzed with the in vitro Stamper-Woodruff binding assay. […] The important control saccharides, carrying at the distal termini the fucose-free sLN-residues instead of the sLex-epitopes are consistently without any inhibitory effect.\nLymphocytes were isolated from mesenterical lymph nodes of WF or DA rats and used immediately in the assay after isolation and pretreatment. […] Lymphocytes were over 99% of purity as quantitated by cytocentrifuge preparations. […]\nIn the Stamper-Woodruff assay 3×10^6 lymphocytes in 100 μl of RPMI containing 0.5% FCS were put on a frozen section inside a 23 mm wax circle, and rotated for 30 min at +4° C. […] The number of bound lymphocytes was calculated per high endothelial venules and 50 to 100 vessels were identified from each sample. […]\nLymphocyte adhesion was studied in a well documented L-selectin-dependent Stamper-Woodruff assay where frozen sections of lymph nodes were prepared, lymphocytes were placed on top of them, adhesion was permitted on a rotator and the number of adherent cells were quantitated visually. […]"}}, "note": "Entries after “also recorded” stand apart in the source; their conditions may differ.", "data": [{"compound": "CC(=O)N[C@H]1C(O)O[C@H](CO)[C@@H](O[C@@H]2O[C@H](CO)[C@H](O)[C@H](O)[C@H]2O)[C@@H]1O", "note": "(stereo partly shown) [glycan 1 (FIG. 8), N-acetyllactosamine, reference compound]", "values": [{"measurement": "fucosylation by Fuc-TIV, acceptor- and site-specificity (in words)", "setting": "human Fuc-TIV", "value": "rapidly fucosylates"}, {"measurement": "Transfer rate (reference acceptor)", "setting": "human Fuc-TIV; reference acceptor for Fuc-TIV", "value": "~3.9", "unit": "pmol/μg protein/h"}]}, {"compound": "CC(=O)N[C@H]1[C@H]([C@H](O)[C@H](O)CO)O[C@@](O[C@H]2[C@@H](O)[C@@H](CO)O[C@@H](O[C@H]3[C@H](O)[C@@H](NC(C)=O)C(O)O[C@@H]3CO)[C@@H]2O)(C(=O)O)C[C@@H]1O", "note": "(stereo partly shown) [glycan 2 (FIG. 8), SAα2-3 'LN, reference compound]", "values": [{"measurement": "fucosylation by Fuc-TIV, acceptor- and site-specificity (in words)", "setting": "human Fuc-TIV", "value": "ineffective"}, {"measurement": "Transfer rate (reference acceptor)", "setting": "human Fuc-TVII; reference acceptor for Fuc-TVII", "value": "~3.2", "unit": "pmol/μg protein/h"}]}, {"compound": "LN1-3'LN1-3'LN [glycan 12 (FIG. 8)]", "values": [{"measurement": "share of Fuc-TIV fucose transfer at the innermost / reducing end LN unit (residue 1)", "setting": "human Fuc-TIV", "value": 28, "unit": "%"}, {"measurement": "share of Fuc-TIV fucose transfer at the middle LN unit (residue 2)", "setting": "human Fuc-TIV", "value": 47, "unit": "%"}, {"measurement": "share of Fuc-TIV fucose transfer at the terminal (sialylated or non-reducing end) LN unit", "setting": "human Fuc-TIV", "value": 25, "unit": "%"}]}, {"compound": "LNβ1-3 'LNβ1-3'Galβ1-OMe [glycan 11 (FIG. 8)]", "values": [{"measurement": "fucosylation by Fuc-TIV, acceptor- and site-specificity (in words)", "setting": "human Fuc-TIV", "value": "transferred efficiently"}, {"measurement": "share of Fuc-TIV fucose transfer at the middle LN unit (residue 2)", "setting": "human Fuc-TIV", "value": 67, "unit": "%"}, {"measurement": "share of Fuc-TIV fucose transfer at the terminal (sialylated or non-reducing end) LN unit", "setting": "human Fuc-TIV", "value": 33, "unit": "%"}]}, {"compound": "LNβ1-3'Lex [glycan 14 (FIG. 8)]", "values": [{"measurement": "fucosylation by Fuc-TIV, acceptor- and site-specificity (in words)", "setting": "human Fuc-TIV", "value": "transferred rapidly"}]}, {"compound": "Lexβ1-3 'LN [glycan 13 (FIG. 8)]", "values": [{"measurement": "fucosylation by Fuc-TIV, acceptor- and site-specificity (in words)", "setting": "human Fuc-TIV", "value": "transferred rapidly"}]}, {"compound": "SAα2,3'LNβ1,3'LNβ1,3' (SAα2,3'LNβ1,3'LNβ1,6')LN [glycan 5]", "values": [{"measurement": "effect on lymphocyte adhesion to HEV (in words)", "setting": "[1]; 50 nM", "value": "no effect in lymphocyte binding to HEV"}, {"measurement": "effect on lymphocyte adhesion/binding to HEV (in words)", "setting": "[1]; peripheral rat lymph node HEV", "value": "did not show inhibitory effects"}]}, {"compound": "SAα2-3'LNβ1-3'LNβ1-3'LN [glycan 4 (FIG. 8)]", "values": [{"measurement": "fucosylation by Fuc-TIV, acceptor- and site-specificity (in words)", "setting": "human Fuc-TIV", "value": "efficiently fucosylates; also recorded: transfers rapidly to sialoglycan 4, at both \"inner\" LN units; also recorded: efficient conversion of glycan 4 to glycan 8 in two steps catalyzed by Fuc-TIV, but not by Fuc-TVII"}, {"measurement": "rate of Fuc-TIV transfer to the sialylated LN unit (residue 3), times slower than to both inner LN units", "setting": "human Fuc-TIV; residue 3 vs residues 1 and 2", "value": "30-40 times slower"}, {"measurement": "fucosylation by Fuc-TVII, acceptor- and site-specificity (in words)", "setting": "human Fuc-TVII", "value": "transfers preferentially to the sialylated, distal LN residue"}, {"measurement": "rate of Fuc-TVII transfer to the reducing end LN unit (residue 1), times slower than to the sialylated LN residue", "setting": "human Fuc-TVII; residue 1 vs residue 3", "value": 84, "unit": "times slower"}, {"measurement": "rate of Fuc-TVII transfer to the middle LN unit (residue 2), times slower than to the sialylated LN residue", "setting": "human Fuc-TVII; residue 2 vs residue 3", "value": 17, "unit": "times slower"}]}, {"compound": "SAα2-3'LNβ1-3'Lexβ1-3'LN [glycan 7 (FIG. 8)]", "values": [{"measurement": "fucosylation by Fuc-TIV, acceptor- and site-specificity (in words)", "setting": "human Fuc-TIV", "value": "effectively utilizes"}, {"measurement": "share of Fuc-TIV fucose transfer at the innermost / reducing end LN unit (residue 1)", "setting": "human Fuc-TIV", "value": 86, "unit": "%"}, {"measurement": "share of Fuc-TIV fucose transfer at the terminal (sialylated or non-reducing end) LN unit", "setting": "human Fuc-TIV", "value": "Less than 5%"}]}, {"compound": "SAα2-3'LNβ1-3Lex β1-3'[^14 C]Lex [glycan 8 (FIG. 8)]", "values": [{"measurement": "fucosylation by Fuc-TIV, acceptor- and site-specificity (in words)", "setting": "human Fuc-TIV", "value": "ineffective"}, {"measurement": "rate of Fuc-TIV reaction as % of the rate catalyzed by Fuc-TVII", "setting": "human Fuc-TIV; transfer to distal sialylated LN unit giving SAα2-3'Lexβ1-3'Lexβ1-3'Lex", "value": "6-7%"}, {"measurement": "fucosylation by Fuc-TVII, acceptor- and site-specificity (in words)", "setting": "human Fuc-TVII", "value": "nearly as rapidly as glycan 2"}]}]}
